Our source for the Activity values is ChEMBL document CHEMBL1150704, “Microbial hydroxylation of quadrone to 8a-hydroxyquadrone” (J Nat Prod, 1987).

For the assay, the system named is P388. Description: Cytotoxicity against mouse P388 cells. Format: functional, cell-based.

Each structure is given as a SMILES string. Calls of active or inactive are those of the source. The rule behind the calls is not given here.

On to `CC1(C)C[C@@]23[C@@H]4CC(=O)[C@@H]2COC(=O)[C@]3(O)CC[C@H]41`, for which the outcome was inactive.
